Data taken from patent US10766895B2 (Zhejiang Huahai Pharmaceutical Co., Ltd., priority 2015, dated 2020).

Key:
[1] = Comparative Example 1: heating palbociclib free base in n-butanol and anisole (method of WO2014128588A1); format: physicochemical; conditions: n-butanol (16 ml/g) and anisole (24 ml/g), heated to 95-100° C.
Excerpt: The seed crystal of crystal form A was required to be added into the reaction system to obtain a crystal form A of palbociclib free base.

[2] = all of organic solvents; cited from earlier work

Solubility on heating [1]: remained insoluble
SMILES: CC(=O)c1c(C)c2cnc(Nc3ccc(N4CCNCC4)cn3)nc2n(C2CCCC2)c1=O [palbociclib free base, 6-acetyl-8-cyclopentyl-5-methyl-2-[[5-(piperazine-1-yl)pyridine-2-yl]amino]-8H-pyrido[2,3-D]pyrimidine-7-ketone]
Solubility in organic solvents [2]: very poor solubility
